Our source for the TGI and GI50 values is PubChem BioAssay (NCI).

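A five-concentration, 48-hour dose response in 96-well plates underlies each endpoint, interpolated linearly between surrounding concentrations. The concentration for 50% growth inhibition is given as GI50. TGI denotes the concentration required for complete inhibition of growth.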 Some results are limits rather than exact numbers.

Test in all cases: NCI tumour cell line growth inhibition, 48 h
Assay [1] relates to EKVX NSCLC.
Assay [2] relates to MALME-3M melanoma.
Assay [3] deals with NCI-H460 lung.
Assay [4] deals with RPMI-8226 leukemia.
Assay [5] has as its system SF-295 CNS.
In assay [6] the test system is SK-MEL-5 melanoma.
Assay [7] deals with SN12C renal.
Assay [8] concerns SNB-19 CNS.
The test system of assay [9] is SR leukemia.
For assay [10], the system named is UO-31 renal.

Regarding `O=C(O)C(=Cc1ccnc2ccccc12)C(=O)O`, the TGI in [1], in assay [2], in assay [3], in assay [4], in assay [5] and in [6] was over 100 µM throughout. Moreover, the TGI in assay [7], in assay [8] and in assay [9] was over 100 µM throughout.
As for `CC(C)(C)N1CCC1C(N)=O` (stereo not drawn), the GI50 in assay [1], in assay [2], in assay [3], in [4], in [5] and in assay [6] was over 100 µM in each case. Further, the GI50 in [7], in [8], in assay [9] and in assay [10] was over 100 µM each time. The TGI in assay [1], in assay [2], in assay [3], in assay [4], in [5] and in assay [6] was over 100 µM in each case. The TGI in assay [7], in [8], in [9] and in assay [10] was over 100 µM throughout.
Turning to `Cc1cn(C2CC(F)C(CO)O2)c(=O)[nH]c1=O` (stereo not drawn), the GI50 in assay [1] was over 100 µM; in assay [2] it was over 100 µM; in assay [3], 0.963 µM; in [4], over 100 µM; in assay [6] it was over 100 µM; in assay [7], over 100 µM. Further, the GI50 in [9] and in assay [10] was over 100 µM in each case. For the same molecule, the TGI in [1], in assay [2], in [3], in [4], in assay [6] and in [7] was over 100 µM in each case. In addition, the TGI in [9] and in assay [10] was over 100 µM in each case.
As to `O=c1cccc(C#CC#C[C@H]2O[C@@H]2CO)o1`, the GI50 was 1.97 µM in [1]; 1.08 µM in assay [3]; 0.101 µM in assay [4]; 1.7 µM in assay [5]; 1.5 µM in assay [6]; 0.149 µM in assay [7]. The GI50 in assay [8] is 6.24 µM; in assay [9], 0.24 µM; in [10], 2.59 µM. Besides, the TGI came out at 4.18 µM in assay [1]; 6.74 µM in assay [3]; 0.331 µM in assay [4]; 3.77 µM in assay [5]; 2.95 µM in assay [6]; 0.333 µM in [7]. Also, the TGI is 14.4 µM in assay [8], over 100 µM in assay [9] and 6.29 µM in assay [10].
Consider `N#Cc1c(C(=O)c2ccccc2)cnn1-c1ccccc1`, for which the GI50 in [2], in [3], in [4], in assay [5], in assay [6] and in [7] was over 25 µM in each case. Also, the GI50 in assay [8], in assay [9] and in assay [10] was over 25 µM in each case. In addition, the TGI in assay [2], in assay [3], in assay [4], in [5], in [6] and in assay [7] was over 25 µM in each case. In addition, the TGI in [8], in assay [9] and in [10] was over 25 µM in each case.
`COc1ccc(-n2c(SCc3cc(OC)c(OC)c(OC)c3)nc3ccc(C)cc3c2=O)c(OC)c1`: the GI50 in assay [2] was 2.97 µM; in assay [3] it was 3.68 µM; in [4], 2.44 µM; in assay [5], 3.22 µM; in assay [6] it was 3.39 µM; in assay [7], 5.1 µM. Further, the GI50 was 6.99 µM in [8], 1.87 µM in assay [9] and 2.76 µM in [10]. For the same molecule, the TGI in [2], in assay [3], in assay [4], in [5], in assay [6] and in assay [7] was over 100 µM throughout. In addition, the results for the TGI in assay [8], in assay [9] and in [10] were over 100 µM, 25.5 µM and over 100 µM, respectively.
As for `N#CC(NNC(=O)c1ccccc1O)c1ccc(O)cc1` (stereo not drawn), the TGI in assay [2], in assay [3], in [4], in assay [5], in [6] and in [7] was over 100 µM throughout. Further, the results for the TGI in [9] and in assay [10] were over 100 µM and 11.9 µM, respectively.
Consider `COCCn1cc(-c2csc(-c3c[nH]c4ccccc34)n2)c2cccnc21`, for which the GI50 was 2 µM in [1]; 3.58 µM in assay [2]; 3.4 µM in [3]; 3.35 µM in assay [5]; 3.22 µM in assay [6]; over 100 µM in [7]. Besides, the GI50 in assay [8] is 16.2 µM; in assay [9], 3.02 µM; in [10], 4.15 µM. In addition, the TGI in assay [1], in [2], in assay [3], in [5], in assay [6] and in [7] was over 100 µM throughout. The TGI in assay [8], in assay [9] and in [10] was over 100 µM in each case.
Turning to `C(=N\Nc1ccccn1)/c1ccccn1`, the GI50 in assay [1] was 0.348 µM; in [2], 0.293 µM; in [3], 0.321 µM; in [4], 6.17 µM; in assay [5], 0.359 µM; in assay [7], 0.443 µM. Besides, the GI50 in assay [8] is 0.547 µM; in assay [9] it was 0.367 µM; in assay [10] it was 0.267 µM. Also, the TGI in assay [1] is over 100 µM; in [2], 2.69 µM; in assay [3], 3.98 µM; in [4], over 100 µM; in assay [5], over 41.3 µM; in assay [7] it was over 100 µM. For the same molecule, the TGI is over 100 µM in assay [8], over 100 µM in assay [9] and over 34.1 µM in assay [10].
